Active and inactive are the calls of the source. The calls are words filed in the database; no cut-off is given here.
Assays:
[1] = target: T1, E3 ubiquitin-protein ligase RNF126/Serine/threonine-protein kinase RIO2 (Homo sapiens, UniProt Q9BVS4+Q9BV68); assay: Molecular glue degradation activity at RNF126/RIOK2 in human MOLT-4 cells assessed as induction protein degradation incubated for 12 hrs by immunoblot analysis; assay type: cell-based
[2] = target: T1, E3 ubiquitin-protein ligase RNF126/Serine/threonine-protein kinase RIO2; assay: Molecular glue degradation activity at RNF126/RIOK2 in human MOLT-4 cells assessed as induction protein degradation incubated for 12 hrs by immunoblot analysis relative to control; assay type: cell-based
Target sequence in this assay (Q9BV68 2-311 partner limits assumed): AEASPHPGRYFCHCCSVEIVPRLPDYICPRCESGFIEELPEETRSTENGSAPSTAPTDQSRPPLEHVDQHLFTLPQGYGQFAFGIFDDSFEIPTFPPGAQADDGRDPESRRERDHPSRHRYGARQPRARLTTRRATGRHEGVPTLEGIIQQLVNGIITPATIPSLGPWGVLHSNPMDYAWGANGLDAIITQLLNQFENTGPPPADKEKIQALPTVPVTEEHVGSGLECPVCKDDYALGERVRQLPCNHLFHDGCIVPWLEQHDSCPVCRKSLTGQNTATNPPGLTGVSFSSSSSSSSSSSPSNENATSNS
Target sequence in this assay (Q9BVS4 whole entry): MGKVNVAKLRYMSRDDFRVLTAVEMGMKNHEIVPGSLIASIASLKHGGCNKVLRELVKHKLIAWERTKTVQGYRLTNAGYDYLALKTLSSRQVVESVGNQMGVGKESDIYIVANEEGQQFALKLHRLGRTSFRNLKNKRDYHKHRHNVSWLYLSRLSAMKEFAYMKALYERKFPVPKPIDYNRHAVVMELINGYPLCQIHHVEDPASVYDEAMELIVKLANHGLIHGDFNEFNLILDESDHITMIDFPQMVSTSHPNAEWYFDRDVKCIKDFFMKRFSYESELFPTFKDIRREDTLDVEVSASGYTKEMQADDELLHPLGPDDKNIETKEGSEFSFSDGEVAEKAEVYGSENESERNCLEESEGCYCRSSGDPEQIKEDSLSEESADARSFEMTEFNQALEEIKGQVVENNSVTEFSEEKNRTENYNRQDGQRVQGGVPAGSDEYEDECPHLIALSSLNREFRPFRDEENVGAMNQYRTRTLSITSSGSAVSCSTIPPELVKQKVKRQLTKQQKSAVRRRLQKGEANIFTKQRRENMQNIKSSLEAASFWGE

[3] = target: T1, E3 ubiquitin-protein ligase RNF126/Serine/threonine-protein kinase RIO2; assay: Molecular glue degradation activity at RNF126/RIOK2 in human MOLT-4 cells assessed as induction protein degradation at 1 uM incubated for 12 hrs by immunoblot analysis; assay type: cell-based
Target sequence in this assay (Q9BV68 2-311 partner limits assumed): as the sequence (Q9BV68 2-311 partner limits assumed) above
Target sequence in this assay (Q9BVS4 whole entry): as the sequence (Q9BVS4 whole entry) above

[4] = target: T1, E3 ubiquitin-protein ligase RNF126/Serine/threonine-protein kinase RIO2; assay: Molecular glue degradation activity at RNF126/RIOK2 in human MOLT-4 cells assessed as induction protein degradation at 1 uM incubated for 24 hrs by immunoblot analysis relative to control; assay type: cell-based
Target sequence in this assay (Q9BV68 2-311 partner limits assumed): as the sequence (Q9BV68 2-311 partner limits assumed) above
Target sequence in this assay (Q9BVS4 whole entry): as the sequence (Q9BVS4 whole entry) above

[5] = target: T1, E3 ubiquitin-protein ligase RNF126/Serine/threonine-protein kinase RIO2; assay: Molecular glue degradation activity at RNF126/RIOK2 in MG132-treated human MOLT-4 cells assessed as induction protein degradation at 1 uM incubated for 12 hrs by immunoblot analysis; assay type: cell-based
Target sequence in this assay (Q9BV68 2-311 partner limits assumed): as the sequence (Q9BV68 2-311 partner limits assumed) above
Target sequence in this assay (Q9BVS4 whole entry): as the sequence (Q9BVS4 whole entry) above

[6] = target: T1, E3 ubiquitin-protein ligase RNF126/Serine/threonine-protein kinase RIO2; assay: Molecular glue degradation activity at RNF126/RIOK2 in MLN4924-treated human MOLT-4 cells assessed as induction protein degradation at 1 uM incubated for 12 hrs by immunoblot analysis; assay type: cell-based
Target sequence in this assay (Q9BV68 2-311 partner limits assumed): as the sequence (Q9BV68 2-311 partner limits assumed) above
Target sequence in this assay (Q9BVS4 whole entry): as the sequence (Q9BVS4 whole entry) above

[7] = target: T1, E3 ubiquitin-protein ligase RNF126/Serine/threonine-protein kinase RIO2; assay: Molecular glue degradation activity at RNF126/RIOK2 in JP-2-196-treated human MOLT-4 cells assessed as induction protein degradation at 1 uM incubated for 12 hrs by immunoblot analysis; assay type: cell-based
Target sequence in this assay (Q9BV68 2-311 partner limits assumed): as the sequence (Q9BV68 2-311 partner limits assumed) above
Target sequence in this assay (Q9BVS4 whole entry): as the sequence (Q9BVS4 whole entry) above

[8] = target: T1, E3 ubiquitin-protein ligase RNF126/Serine/threonine-protein kinase RIO2; assay: Molecular glue degradation activity at RNF126/RIOK2 in human MOLT-4 cells assessed as increase in ubiquitination of RIOK2 at 1 uM incubated for 10 hrs by immunoblot analysis; assay type: cell-based
[9] = target: T1, E3 ubiquitin-protein ligase RNF126/Serine/threonine-protein kinase RIO2; assay: Molecular glue degradation activity at RNF126/RIOK2 in human U-937 cells assessed as induction protein degradation by immunoblot analysis; assay type: cell-based
Target sequence in this assay (Q9BVS4 whole entry): as above
Target sequence in this assay (Q9BV68 whole entry): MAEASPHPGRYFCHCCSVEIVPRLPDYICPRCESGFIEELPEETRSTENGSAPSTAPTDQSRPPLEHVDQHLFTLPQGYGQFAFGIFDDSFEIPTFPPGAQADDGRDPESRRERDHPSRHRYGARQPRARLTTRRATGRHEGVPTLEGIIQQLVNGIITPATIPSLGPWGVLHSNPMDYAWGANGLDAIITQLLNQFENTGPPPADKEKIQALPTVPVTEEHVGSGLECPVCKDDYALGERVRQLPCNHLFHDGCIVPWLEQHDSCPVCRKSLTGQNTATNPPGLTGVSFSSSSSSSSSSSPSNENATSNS

[10] = target: T1, E3 ubiquitin-protein ligase RNF126/Serine/threonine-protein kinase RIO2; assay: Molecular glue degradation activity at RNF126/RIOK2 in human HL-60 cells assessed as induction protein degradation by immunoblot analysis; assay type: cell-based
Target sequence in this assay (Q9BVS4 whole entry): as the sequence (Q9BVS4 whole entry) above
Target sequence in this assay (Q9BV68 whole entry): as the sequence (Q9BV68 whole entry) above

[11] = target: T1, E3 ubiquitin-protein ligase RNF126/Serine/threonine-protein kinase RIO2; assay: Molecular glue degradation activity at RNF126/RIOK2 in human K562 cells assessed as induction protein degradation by immunoblot analysis; assay type: cell-based
Target sequence in this assay (Q9BVS4 whole entry): as the sequence (Q9BVS4 whole entry) above
Target sequence in this assay (Q9BV68 whole entry): as the sequence (Q9BV68 whole entry) above

[12] = target: T1, E3 ubiquitin-protein ligase RNF126/Serine/threonine-protein kinase RIO2; assay: Molecular glue degradation activity at RNF126/RIOK2 in human ASPC1 cells assessed as induction protein degradation by immunoblot analysis; assay type: cell-based
Target sequence in this assay (Q9BVS4 whole entry): as the sequence (Q9BVS4 whole entry) above
Target sequence in this assay (Q9BV68 whole entry): as the sequence (Q9BV68 whole entry) above

[13] = target: T1, E3 ubiquitin-protein ligase RNF126/Serine/threonine-protein kinase RIO2; assay: Molecular glue degradation activity at RNF126/RIOK2 in human A549 cells assessed as induction protein degradation by immunoblot analysis; assay type: cell-based
Target sequence in this assay (Q9BVS4 whole entry): as the sequence (Q9BVS4 whole entry) above
Target sequence in this assay (Q9BV68 whole entry): as the sequence (Q9BV68 whole entry) above

[14] = target: T1, E3 ubiquitin-protein ligase RNF126/Serine/threonine-protein kinase RIO2; assay: Molecular glue degradation activity at RNF126/RIOK2 in human HeLa cells assessed as induction protein degradation by immunoblot analysis; assay type: cell-based
Target sequence in this assay (Q9BVS4 whole entry): as the sequence (Q9BVS4 whole entry) above
Target sequence in this assay (Q9BV68 whole entry): as the sequence (Q9BV68 whole entry) above

[15] = target: T1, E3 ubiquitin-protein ligase RNF126/Serine/threonine-protein kinase RIO2; assay: Molecular glue degradation activity at RNF126/RIOK2 in HEK293 cells assessed as induction protein degradation by immunoblot analysis; assay type: cell-based
[16] = target: T1, E3 ubiquitin-protein ligase RNF126/Serine/threonine-protein kinase RIO2; assay: Molecular glue degradation activity at RNF126/RIOK2 in human U-937 cells assessed as induction protein degradation by immunoblot analysis relative to control; assay type: cell-based
[17] = target: T1, E3 ubiquitin-protein ligase RNF126/Serine/threonine-protein kinase RIO2; assay: Molecular glue degradation activity at RNF126/RIOK2 in human HL-60 cells assessed as induction protein degradation by immunoblot analysis relative to control; assay type: cell-based
[18] = target: T1, E3 ubiquitin-protein ligase RNF126/Serine/threonine-protein kinase RIO2; assay: Molecular glue degradation activity at RNF126/RIOK2 in human OCILY3 cells assessed as induction protein degradation by immunoblot analysis relative to control; assay type: cell-based
[19] = target: T1, E3 ubiquitin-protein ligase RNF126/Serine/threonine-protein kinase RIO2; assay: Molecular glue degradation activity at RNF126/RIOK2 in human HeLa cells assessed as induction protein degradation by immunoblot analysis relative to control; assay type: cell-based
MOLT-4 [20] = assay: Antiproliferative activity against human MOLT-4 cells incubated for 72 hrs by CCK8 assay; assay type: functional, cell-based; conditions: MOLT-4, 72 h
HL-60 = assay: Antiproliferative activity against human HL-60 cells incubated for 72 hrs by CCK8 assay; assay type: functional, cell-based; conditions: HL-60, 72 h
OCI-Ly3 = assay: Antiproliferative activity against human OCILY3 cells incubated for 72 hrs by CCK8 assay; assay type: functional, cell-based; conditions: OCI-Ly3, 72 h
ASPC1 = assay: Antiproliferative activity against human ASPC1 cells incubated for 72 hrs by CCK8 assay; assay type: functional, cell-based; conditions: ASPC1, 72 h
HeLa = assay: Antiproliferative activity against human HeLa cells incubated for 72 hrs by CCK8 assay; assay type: functional, cell-based
[21] = Antiproliferative activity against HEK293 cells incubated for 72 hrs by CCK8 assay; assay type: toxicity, cell-based; conditions: human
[22] = Antiproliferative activity against mouse NIH3T3 cells incubated for 72 hrs by CCK8 assay; assay type: toxicity, cell-based
[23] = Antiproliferative activity against human MRC5 cells incubated for 72 hrs by CCK8 assay; assay type: toxicity, cell-based
[24] = target: Serine/threonine-protein kinase RIO2 (Homo sapiens, UniProt Q9BVS4); assay: Inhibition of RIOK2 (unknown origin) ATPase activity incubated for 2 hrs in presence of ATP by ADP-Glo assay
Chain of Serine/threonine-protein kinase RIO2 (Q9BVS4 whole entry): as the sequence (Q9BVS4 whole entry) above

[25] = target: T1, E3 ubiquitin-protein ligase RNF126/Serine/threonine-protein kinase RIO2; assay: Molecular glue degradation activity at RNF126/RIOK2 in human MOLT-4 cells assessed as decrease in AKT level at 500 nM incubated for 12 hrs by immunoblot analysis; assay type: cell-based
MOLT-4 [26] = assay: Induction of cell cycle arrest in human MOLT-4 cells assessed as accumulation at G2/M phase at 900 nM incubated for 24 hrs by PI staining based flow cytometry relative to control; assay type: functional
MOLT-4 [27] = assay: Induction of apoptosis in human MOLT-4 cells at 900 nM incubated for 48 hrs by Annexin V-FITC/PI staining based flow cytometry relative to control; assay type: functional
MOLT-4 [28] = assay: Induction of apoptosis in human MOLT-4 cells incubated for 48 hrs by Annexin V-FITC/PI staining based flow cytometry; assay type: functional, cell-based; conditions: dose <= 900.0 nM
MOLT-4 [29] = assay: Induction of cell cycle arrest in human MOLT-4 cells assessed as decrease in cyclin B1 level by Western blot analysis; assay type: functional, cell-based; conditions: dose <= 900.0 nM
MOLT-4 [30] = assay: Induction of cell cycle arrest in human MOLT-4 cells assessed as decrease in CDK2 level by Western blot analysis; assay type: functional, cell-based; conditions: dose <= 900.0 nM
MOLT-4 [31] = assay: Induction of apoptosis in human MOLT-4 cells assessed as decrease in PARP level by Western blot analysis; assay type: functional, cell-based; conditions: dose <= 900.0 nM
MOLT-4 [32] = assay: Induction of apoptosis in human MOLT-4 cells assessed as increase in cleaved caspase-9 level by Western blot analysis; assay type: functional, cell-based; conditions: dose <= 900.0 nM
[33] = Cmax in Sprague-Dawley rat at 5 mg/kg, iv measured for 24 hrs; assay type: ADME, organism-based; conditions: in vivo
[34] = Clearance in Sprague-Dawley rat at 5 mg/kg, iv measured for 24 hrs; assay type: ADME, organism-based; conditions: in vivo
[35] = AUClast in Sprague-Dawley rat at 10 mg/kg, ip measured for 24 hrs; assay type: ADME, organism-based; conditions: in vivo
[36] = Half life in Sprague-Dawley rat at 10 mg/kg, ip measured for 24 hrs; assay type: ADME, organism-based; conditions: in vivo
[37] = Cmax in Sprague-Dawley rat at 10 mg/kg, ip measured for 24 hrs; assay type: ADME, organism-based; conditions: in vivo
MOLT-4 [38] = assay: Antitumor activity against human MOLT-4 cells xenografted in SCID-CB17 mouse at 10 mg/kg, ip for 18 days relative to control; assay type: functional; conditions: MOLT-4, 432 h, time 18 day, read-out: TGI
[39] = Toxicity in SCID-CB17 mouse xenografted with human MOLT-4 cells assessed as body weight loss at 10 mg/kg, ip for 18 days; assay type: organism-based; conditions: in vivo, 432 h, time 18 day

**Q.** With `COc1ccc(-c2ccc3[nH]c(=O)c4nnn(-c5ccc(N6CCN(C(=O)/C=C/C(=O)c7ccc(F)cc7)CC6)c(C(F)(F)F)c5)c4c3c2)cn1` as the compound, how does the DC50 [1] read?
**A.** The DC50 was 0.41 µM.

**Q.** And the Activity ([1]; dose <= 10.0 µM)?
**A.** The Activity was “Dose-dependent-effect”.

**Q.** And the Emax [2]?
**A.** The Emax was 83.4%.

**Q.** And the Activity [3]?
**A.** The Activity was “Active”.

**Q.** What about the Emax [4] of the same compound?
**A.** Its Emax is 94.8%.

**Q.** And the Activity [5]?
**A.** Its Activity is “inactive”.

**Q.** What about the Activity [6] of the same compound?
**A.** The Activity was “inactive”.

**Q.** And the Activity [7]?
**A.** Its Activity is “inactive”.

**Q.** What about the Activity [8] of the same compound?
**A.** The Activity was “Active”.

**Q.** What about the DC50 [9] of the same compound?
**A.** The DC50 was 1.3 µM.

**Q.** What about the DC50 [10] of the same compound?
**A.** The DC50 was 0.55 µM.

**Q.** And the DC50 [11]?
**A.** The DC50 was > 10 µM.

**Q.** What about the DC50 [12] of the same compound?
**A.** The DC50 was > 10 µM.

**Q.** And the DC50 [13]?
**A.** Its DC50 is > 10 µM.

**Q.** And the DC50 [14]?
**A.** Its DC50 is 8.7 µM.

**Q.** And the DC50 [15]?
**A.** Its DC50 is > 10 µM.

**Q.** What about the Emax [16] of the same compound?
**A.** The Emax was 60.4%.

**Q.** And the Emax [17]?
**A.** Its Emax is 74.6%.

**Q.** What about the Emax [18] of the same compound?
**A.** Its Emax is 66.9%.

**Q.** What about the Emax [19] of the same compound?
**A.** The Emax was 50.3%.

**Q.** And the IC50 (MOLT-4 [20])?
**A.** Its IC50 is 0.13 µM.

**Q.** What about the IC50 (HL-60) of the same compound?
**A.** Its IC50 is 0.34 µM.

**Q.** What about the IC50 (OCI-Ly3) of the same compound?
**A.** Its IC50 is 0.12 µM.

**Q.** And the IC50 (ASPC1)?
**A.** The IC50 was 1.13 µM.

**Q.** What about the IC50 (HeLa) of the same compound?
**A.** Its IC50 is 0.58 µM.

**Q.** What about the IC50 at 72 h [21] of the same compound?
**A.** Its IC50 at 72 h is 1.05 µM.

**Q.** And the IC50 at 72 h [22]?
**A.** Its IC50 at 72 h is 1.06 µM.

**Q.** And the IC50 at 72 h [23]?
**A.** The IC50 at 72 h was 1.09 µM.

**Q.** What about the IC50 [24] of the same compound?
**A.** Its IC50 is 0.098 µM.

**Q.** And the Activity [25]?
**A.** Its Activity is “Active”.

**Q.** And the Activity (MOLT-4 [26])?
**A.** Its Activity is 39.6%.

**Q.** And the Activity (MOLT-4 [27])?
**A.** Its Activity is 57.11%.

**Q.** What about the Activity (MOLT-4 [28]) of the same compound?
**A.** Its Activity is “Dose-dependent-effect”.

**Q.** What about the Activity (MOLT-4 [29]) of the same compound?
**A.** The Activity was “Dose-dependent-effect”.

**Q.** What about the Activity (MOLT-4 [30]) of the same compound?
**A.** The Activity was “Dose-dependent-effect”.

**Q.** And the Activity (MOLT-4 [31])?
**A.** The Activity was “Dose-dependent-effect”.

**Q.** And the Activity (MOLT-4 [32])?
**A.** The Activity was “Dose-dependent-effect”.

**Q.** And the Cmax [33]?
**A.** Its Cmax is 1440 ng/mL.

**Q.** And the clearance [34]?
**A.** Its clearance is 69.2 mL/min/kg.

**Q.** What about the AUClast [35] of the same compound?
**A.** Its AUClast is 1200 ng·h/mL.

**Q.** And the half-life [36]?
**A.** Its half-life is 8.1 h.

**Q.** And the Cmax [37]?
**A.** Its Cmax is 90.6 ng/mL.

**Q.** What about the inhibition in vivo at 10 mg/kg (MOLT-4 [38]) of the same compound?
**A.** The inhibition in vivo at 10 mg/kg was 18.6%.

**Q.** What about the Activity [39] of the same compound?
**A.** The Activity was “Non-toxic”.

— ChEMBL document CHEMBL6078724, “Discovery of the first examples of right open reading frame kinase 2 (RIOK2) molecular glue degraders” (Eur J Med Chem, 2025)
